Test results from article PMC8949615, “Inhibitory Effect of Polyphenols from the Whole Green Jackfruit Flour against α-Glucosidase, α-Amylase, Aldose Reductase and Glycation at Multiple Stages and Their Interaction: Inhibition Kinetics and Molecular Simulations” (Molecules, 2022).
Several values for one entry are separate records, joined by “and”; a condition that tells them apart may be missing. Equal entries are not always repeated. Marks after values point to notes of the source that are not given here.

Assays:
HSA/fructose system [1] = experiment: HSA glycation, intermediate stage: protein carbonyls; type: biochemical, human
HSA/fructose system [2] = experiment: HSA glycation, early stage: fructosamine (NBT test); type: biochemical, human; parameters: dose or concentration left out as unconfirmed
HSA/fructose system [3] = experiment: HSA glycation: protein thiol group protection; type: biochemical, human; conditions: for thiol shielding / thiol group protection: 100 µg/mL; for Thiols Group: HSA/fructose
[4] = DPPH radical scavenging activity; conditions: mean ± SE
[5] = superoxide radical scavenging activity; conditions: mean ± SE
[6] = ABTS radical scavenging activity; conditions: mean ± SE
yeast α-glucosidase = type: biochemical; conditions: mean ± SE
α-glucosidase = α-glucosidase inhibition kinetics (Lineweaver-Burk, secondary plot); type: biochemical, yeast; conditions: for Mode of Inhibition, α-Glucosidase: from double reciprocal plot; for Ki, α-Glucosidase: secondary plot, mean ± SE
α-amylase = biological target: T1, α-amylase (Sus scrofa, UniProt P00690); experiment: α-amylase inhibition kinetics (Lineweaver-Burk, secondary plot); type: biochemical, porcine
T1 sequence (P00690 16-511): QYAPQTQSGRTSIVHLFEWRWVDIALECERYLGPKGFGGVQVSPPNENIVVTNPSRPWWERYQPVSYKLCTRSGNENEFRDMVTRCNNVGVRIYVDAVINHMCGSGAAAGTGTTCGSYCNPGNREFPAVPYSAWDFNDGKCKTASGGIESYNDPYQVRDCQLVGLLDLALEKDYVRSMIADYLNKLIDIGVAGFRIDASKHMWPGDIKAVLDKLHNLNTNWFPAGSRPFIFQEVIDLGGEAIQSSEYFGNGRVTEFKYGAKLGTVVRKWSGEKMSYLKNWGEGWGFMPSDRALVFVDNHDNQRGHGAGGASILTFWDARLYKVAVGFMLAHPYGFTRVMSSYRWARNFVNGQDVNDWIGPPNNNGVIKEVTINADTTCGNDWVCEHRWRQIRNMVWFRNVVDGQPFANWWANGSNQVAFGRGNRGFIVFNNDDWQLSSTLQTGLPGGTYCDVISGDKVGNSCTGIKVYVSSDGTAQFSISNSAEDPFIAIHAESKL

aldose reductase [7] = biological target: T2, aldose reductase (Homo sapiens, UniProt P15121); experiment: aldose reductase inhibition kinetics (Lineweaver-Burk, secondary plot); type: biochemical; conditions: for Mode of Inhibition, Aldose reductase: from double reciprocal plot
[8] = parameters: method as in earlier work; conditions: ref [9] of the supplement, cited from earlier work
aldose reductase [9] = biological target: T2, aldose reductase; experiment: aldose reductase inhibition assay; type: biochemical; conditions: mean ± SE
[10] = biological target: T3, type-VI B porcine pancreatic α-amylase (Sus scrofa, UniProt P00690); experiment: α-amylase inhibition assay; type: biochemical; conditions: mean ± SE
T3 sequence (P00690 16-511): T1 sequence (P00690 16-511)

SMILES	Protein carbonyl Content (HSA/fructose system [1]; week 1)	Protein carbonyl Content (HSA/fructose system [1]; week 2)	Protein carbonyl Content (HSA/fructose system [1]; week 3)	Fructosamine (HSA/fructose system [2]; week 1)	Fructosamine (HSA/fructose system [2]; week 2)	Fructosamine (HSA/fructose system [2]; week 3)	thiol shielding / thiol group protection (HSA/fructose system [3])	Thiols Group (HSA/fructose system [3]; week 1)	Thiols Group (HSA/fructose system [3]; week 2)	Thiols Group (HSA/fructose system [3]; week 3)	EC50 Radical Scavenging Activities DPPH [4]	EC50 Radical Scavenging Activities Superoxide [5]	EC50 Radical Scavenging Activities ABTS [6]	IC50 α-Glucosidase (yeast α-glucosidase)	Mode of Inhibition, α-Glucosidase (α-glucosidase)	Vmax, α-Glucosidase (α-glucosidase; inhibitor at IC20)	Vmax, α-Glucosidase (α-glucosidase; inhibitor at IC40)	Vmax, α-Glucosidase (α-glucosidase; inhibitor at IC60)	Vmax, α-Amylase (α-amylase; inhibitor at IC40)	Mode of Inhibition, Aldose reductase (aldose reductase [7])	further results
N=C(N)NN [Aminoguanidine, aminoguanidine, reference compound]	0.64 ± 0.54 ^e nmol/mg protein	0.66 ± 1.05 ^e nmol/mg protein	0.70 ± 1.11 ^e nmol/mg protein	28.50 ± 1.16 ^d mmol/mg Protein	30.00 ± 1.00 ^d mmol/mg Protein	31.75 ± 0.97 ^d mmol/mg Protein	71%	0.95 ± 1.46 ^b nmol/mg protein	1.04 ± 1.00 ^b nmol/mg protein	1.17 ± 0.89 ^b nmol/mg protein											
COc1ccc(O)c(C(C)(C)C)c1 [BHA, butylated hydroxyl anisole, reference compound]											40.25 ± 0.30 ^d μg/mL	64.75 ± 0.13 ^d μg/mL	31.00 ± 0.55 ^d μg/mL								
O=C(O)C=Cc1ccc(O)c(O)c1 [Caffeic acid, 3-(3,4-Dihydroxyphenyl)-2-propenoic acid]	0.49 ± 2.17 ^b nmol/mg protein	0.57 ± 1.25 ^b nmol/mg protein	0.57 ± 2.22 ^b nmol/mg protein	26.82 ± 0.14 ^a mmol/mg Protein	27.06 ± 0.13 ^a mmol/mg Protein	28.02 ± 1.04 ^a mmol/mg Protein	74–83%	0.69 ± 0.55 ^a nmol/mg protein	0.79 ± 0.05 ^a nmol/mg protein	0.80 ± 0.88 ^a nmol/mg protein	18.50 ± 0.08 ^b μg/mL	30.13 ± 2.05 ^b μg/mL	12.44 ± 1.60 ^b μg/mL	8.00 ± 0.40 ^a µg/mL	Competitive	39.98 10^3(µM/min)^−1	40.40 10^3(µM/min)^−1	40.37 10^3(µM/min)^−1	25.75 10^3(µM/min)^−1	Non-competitive	Ki, α-Glucosidase (α-glucosidase; listed as CA): 1.03 mg and 0.52 ± 0.02 mg; Vmax, Aldose reductase (aldose reductase [7]; inhibitor at IC20): 13.35 10^3(µM/min)^−1; Vmax, Aldose reductase (aldose reductase [7]; inhibitor at IC40): 10.15 10^3(µM/min)^−1; Vmax, Aldose reductase (aldose reductase [7]; inhibitor at IC60): 5.05 10^3(µM/min)^−1
O=c1c(O)c(-c2ccc(O)c(O)c2)oc2cc(O)cc(O)c12 [Quercetin]																					adverse effects on serum electrolytes, renal, haematological, and liver function blood parameters ([8]; >1000 mg/day for several months): no adverse effects; safety and tolerability in human clinical trials [8]: safe and well-tolerated
COc1cc(C(=O)O)cc(OC)c1O [Syringic acid, 4-Hydroxy-3,5-dimethoxybenzoic acid]	0.49 ± 1.06 ^c nmol/mg protein	0.54 ± 0.62 ^c nmol/mg protein	0.54 ± 1.32 ^c nmol/mg protein	26.30 ± 1.21 ^b mmol/mg Protein	26.99 ± 1.90 ^b mmol/mg Protein	26.41 ± 1.18 ^b mmol/mg Protein	74–83%	0.64 ± 0.62 ^a nmol/mg protein	0.76 ± 0.53 ^a nmol/mg protein	0.78 ± 0.34 ^a nmol/mg protein	16.00 ± 0.13 ^a μg/mL	28.00 ± 1.19 ^a μg/mL	11.40 ± 2.04 ^a μg/mL	7.50 ± 1.05 ^a µg/mL	Competitive	33.55 10^3(µM/min)^−1	33.43 10^3(µM/min)^−1	33.79 10^3(µM/min)^−1	51.11 10^3(µM/min)^−1	Non-competitive	IC50 (aldose reductase [9]): 15.1 µM; IC50 [10]: 127 µM; Ki, α-Glucosidase (α-glucosidase): 0.96 ± 0.22 mg; Ki, α-Glucosidase (α-glucosidase; listed as SA): 1.25 mg; Mode of Inhibition, α-Amylase (α-amylase; from double reciprocal plot): Competitive; Vmax, α-Amylase (α-amylase; inhibitor at IC20): 51.10 10^3(µM/min)^−1; Vmax, α-Amylase (α-amylase; inhibitor at IC60): 50.95 10^3(µM/min)^−1; Ki (α-amylase; secondary plot, mean ± SE): 6.31 µM; Vmax, Aldose reductase (aldose reductase [7]; inhibitor at IC20): 34.47 10^3(µM/min)^−1; Vmax, Aldose reductase (aldose reductase [7]; inhibitor at IC40): 20.05 10^3(µM/min)^−1; Vmax, Aldose reductase (aldose reductase [7]; inhibitor at IC60): 11.50 10^3(µM/min)^−1; Ki (aldose reductase [7]; secondary plot, mean ± SE): 8.28 µM
